Reference: publication PMC3367138, “Selective inhibitors of cardiac ADPR cyclase as novel anti-arrhythmic compounds” (Naunyn-Schmiedeberg's Archives of Pharmacology, 2012)

Molecular target: T1, adenosine A2A receptor (Homo sapiens, UniProt P29274)
T1 construct: gene ADORA2A
Assay: radioligand displacement (agonist radioligand), single concentration […] in duplicate; […] of control remaining ([…] inhibition)
Type: binding

T1 sequence (P29274 whole entry): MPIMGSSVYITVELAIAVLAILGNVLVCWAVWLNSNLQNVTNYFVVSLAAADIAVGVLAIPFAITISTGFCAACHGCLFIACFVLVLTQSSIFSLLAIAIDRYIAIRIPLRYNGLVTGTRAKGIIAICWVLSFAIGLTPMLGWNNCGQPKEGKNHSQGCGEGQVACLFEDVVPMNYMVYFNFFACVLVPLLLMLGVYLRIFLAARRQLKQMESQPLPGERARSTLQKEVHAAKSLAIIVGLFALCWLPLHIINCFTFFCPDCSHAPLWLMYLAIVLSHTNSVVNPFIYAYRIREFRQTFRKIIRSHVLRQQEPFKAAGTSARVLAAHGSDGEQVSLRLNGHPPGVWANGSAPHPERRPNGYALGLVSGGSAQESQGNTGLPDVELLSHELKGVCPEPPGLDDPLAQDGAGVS

Structure (SMILES): Cc1nn(Cc2cccc(C(=O)O)c2)c2nc(-c3ccncc3)[nH]c(=O)c12 [SAN4825]
- inhibition at 10 µM: 81%
